Among the test systems are SNB-75 CNS; CAKI-1 renal; SK-MEL-28 melanoma; HT29 colon; NCI-H460 lung; SR leukemia; NCI/ADR-RES ovarian; OVCAR-3 ovarian; SK-OV-3 ovarian; PC-3 prostate.
Common to all, as to test: growth of human tumour cells (NCI), 48 h

Values joined by “and” are separate entries in the source; they are usually repeats but may differ in a detail not shown here. Identical values can stand only once.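 Interpolation was linear, between the two tested concentrations surrounding the appropriate level; five concentrations were tested over 48 hours in 96-well plates. GI50 = concentration required for 50% inhibition of growth. TGI: concentration producing complete growth inhibition.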

For the compound `O=C(Cn1ccnc1[N+](=O)[O-])N(CCO)CCO`, the GI50 in the experiment on SNB-75 CNS is 182 µM; in the experiment with CAKI-1 renal it was over 1250 µM; with SK-MEL-28 melanoma it was over 1250 µM; in the experiment with HT29 colon, over 1250 µM; in the experiment with NCI-H460 lung, over 250 µM; with NCI/ADR-RES ovarian, over 1250 µM. In addition, the GI50 in the experiment on OVCAR-3 ovarian is over 312 µM; with SK-OV-3 ovarian, over 58 µM. Further, the TGI is 250 µM and > 1250 µM in the experiment with SNB-75 CNS; over 1250 µM with CAKI-1 renal; over 1250 µM in the experiment on SK-MEL-28 melanoma; over 1250 µM in the experiment on HT29 colon; over 1250 µM in the experiment on NCI-H460 lung; over 79 µM with SR leukemia. Further, the TGI with NCI/ADR-RES ovarian is over 1250 µM; in the experiment on OVCAR-3 ovarian it was over 828 µM; in the experiment on SK-OV-3 ovarian it was over 250 µM; with PC-3 prostate it was over 250 µM.
On to `O=C1Nc2ccc(F)c3c(OCCO)cc(-c4ccc[nH]4)c1c23`, for which the GI50 in the experiment on SNB-75 CNS is 1.52 µM; in the experiment with CAKI-1 renal it was 0.393 µM; with SK-MEL-28 melanoma, 4.43 µM; in the experiment on HT29 colon, 1.99 µM; in the experiment on NCI-H460 lung it was 0.927 µM; in the experiment on SR leukemia it was 0.963 µM. The GI50 was 4.01 µM in the experiment on NCI/ADR-RES ovarian, 3.59 µM in the experiment on OVCAR-3 ovarian, 1.47 µM in the experiment on SK-OV-3 ovarian and 1.32 µM in the experiment on PC-3 prostate. Also, the TGI in the experiment on SNB-75 CNS is 7.02 µM; in the experiment on CAKI-1 renal, 3.33 µM; in the experiment on SK-MEL-28 melanoma it was 15.1 µM; in the experiment on HT29 colon, 9.95 µM; in the experiment on NCI-H460 lung, 5.14 µM; in the experiment with SR leukemia, 5.51 µM. For the same compound, the TGI with NCI/ADR-RES ovarian was found to be 20.1 µM; with OVCAR-3 ovarian, 9.7 µM; with SK-OV-3 ovarian, 25 µM; in the experiment with PC-3 prostate, 10.3 µM.
In the case of `C[C@@H]1O[C@@H](O[C@H]2C[C@@H](O)[C@]3(CO)C4C(CC[C@]3(O)C2)[C@@]2(O)CC[C@H](C3=CC(=O)OC3)[C@@]2(C)C[C@H]4O)[C@H](O)[C@H](O)[C@H]1O` (stereo partly drawn), the GI50 in the experiment with SNB-75 CNS was 0.0277 µM; with CAKI-1 renal, 0.0166 µM; in the experiment with SK-MEL-28 melanoma it was 0.0881 µM; in the experiment on HT29 colon, 0.0248 µM; in the experiment with NCI-H460 lung it was 0.0133 µM; in the experiment with SR leukemia it was 0.0105 µM. In addition, the GI50 was 0.0154 µM in the experiment on NCI/ADR-RES ovarian, 0.0168 µM in the experiment on OVCAR-3 ovarian, 0.0203 µM with SK-OV-3 ovarian and 0.0214 µM in the experiment with PC-3 prostate. For the same compound, the TGI in the experiment on SNB-75 CNS amounted to 0.0946 µM; in the experiment with CAKI-1 renal, 0.0679 µM; in the experiment on SK-MEL-28 melanoma, 0.164 µM; in the experiment with HT29 colon it was 0.0836 µM; in the experiment on NCI-H460 lung it was 0.0376 µM; in the experiment on SR leukemia, 0.0317 µM. Also, the TGI in the experiment with NCI/ADR-RES ovarian is 0.0452 µM; with OVCAR-3 ovarian, 0.0487 µM; in the experiment on SK-OV-3 ovarian, 0.0731 µM; in the experiment on PC-3 prostate it was 0.113 µM.
Take `CCOc1ccc(NC(=O)Nc2cc(C(C)C)ccc2C)cc1`: the GI50 was 2.82 µM in the experiment with SNB-75 CNS; 6.35 µM in the experiment on CAKI-1 renal; 8.32 µM in the experiment on SK-MEL-28 melanoma; 32.8 µM in the experiment with HT29 colon; 9.22 µM with NCI-H460 lung; 0.952 µM in the experiment on SR leukemia. In addition, the GI50 in the experiment with NCI/ADR-RES ovarian was 6.96 µM; in the experiment with OVCAR-3 ovarian it was 5.33 µM; in the experiment with SK-OV-3 ovarian it was 12.3 µM; with PC-3 prostate, 11.4 µM. Besides, the TGI in the experiment with SNB-75 CNS was 10.2 µM; in the experiment on CAKI-1 renal it was 28.2 µM; with SK-MEL-28 melanoma, 41.8 µM; in the experiment with HT29 colon it was over 100 µM; with NCI-H460 lung, over 100 µM; in the experiment on SR leukemia, over 22.9 µM. Further, the TGI is 44.7 µM in the experiment with NCI/ADR-RES ovarian, 13.6 µM in the experiment with OVCAR-3 ovarian, 35.4 µM in the experiment with SK-OV-3 ovarian and over 58 µM in the experiment with PC-3 prostate.
Turning to `O=C(NO)c1ccc(C(=O)NO)cc1`, the TGI in the experiment with SNB-75 CNS, in the experiment with CAKI-1 renal, in the experiment with SK-MEL-28 melanoma, in the experiment on HT29 colon, in the experiment with NCI-H460 lung and with SR leukemia was over 100 µM in each case. The TGI with NCI/ADR-RES ovarian was 26.2 µM; with OVCAR-3 ovarian it was over 100 µM; with SK-OV-3 ovarian, 87.2 µM; in the experiment with PC-3 prostate it was over 100 µM.
Regarding `CO/N=C(\c1ccccc1)c1cnn(-c2ccccc2)c1N`, the GI50 with SNB-75 CNS, in the experiment with CAKI-1 renal, with SK-MEL-28 melanoma, in the experiment on HT29 colon, with NCI-H460 lung and in the experiment on SR leukemia was over 25 µM throughout. In addition, the GI50 with NCI/ADR-RES ovarian, in the experiment on OVCAR-3 ovarian, in the experiment with SK-OV-3 ovarian and in the experiment on PC-3 prostate was over 25 µM throughout. Also, the TGI with SNB-75 CNS, in the experiment with CAKI-1 renal, with SK-MEL-28 melanoma, in the experiment on HT29 colon, with NCI-H460 lung and in the experiment on SR leukemia was over 25 µM each time. In addition, the TGI in the experiment on NCI/ADR-RES ovarian, with OVCAR-3 ovarian, with SK-OV-3 ovarian and with PC-3 prostate was over 25 µM each time.

Source of the values: PubChem BioAssay (NCI).
